This is an account of results in patent publication EP4459287A1, “METHODS AND TOOLS FOR DETECTING THE IMPACT OF COMPOUNDS ON PROTEIN, RNA OR DNA INTERACTIONS” (Synsight "Génopole Entreprises", priority 2023, dated 2024).

The test system of one test is TDP-43. The test can be described thus: Four TDP-43 tests (stress granule enrichment, subcellular localization, CFTR alternative splicing, G146A aggregation). It counts as cell-based. The text has this: The 13 selected compounds have then been tested in the three cellular tests, i.e. enrichment of wt TDP-43 in stress granules and their subcellular localization in presence of the compounds to be tested, and the effects of the compounds to be tested on the alternative splicing of the cystic fibrosis transmembrane conductance regulator (CFTR) gene by wt TDP-43. Finally, the effects of the 13 compounds on the aggregation of the G146A mutant of TDP-43 has been tested.

The conditions of test [1]: cellular data, Vu et al., 2013; read-out: IC50 MTT assay; cited from earlier work. Background: Formazan colour is commonly taken as a measure of viable cells.
A further test has as its target T1, p53/MDM2 interaction (Homo sapiens, UniProt Q00987).
T1 construct: Human p53 and MDM2 full length cDNA were amplified by PCR; expressed in transfected cells; host or cells: U-2 OS (human osteosarcoma)
Description: MT bench cell-based assay of p53/MDM2 interaction on HCS (PCC co-localization score). Conditions: for inhibition of the p53/MDM2 interaction: U-2 OS cells.

A further test concerns the target MDM2-FL_C_GFP (human) (UniProt Q00987). The test can be described thus: MT bench normalized PCC score, fixed U-2 OS cells.

T1 sequence (Q00987 whole entry): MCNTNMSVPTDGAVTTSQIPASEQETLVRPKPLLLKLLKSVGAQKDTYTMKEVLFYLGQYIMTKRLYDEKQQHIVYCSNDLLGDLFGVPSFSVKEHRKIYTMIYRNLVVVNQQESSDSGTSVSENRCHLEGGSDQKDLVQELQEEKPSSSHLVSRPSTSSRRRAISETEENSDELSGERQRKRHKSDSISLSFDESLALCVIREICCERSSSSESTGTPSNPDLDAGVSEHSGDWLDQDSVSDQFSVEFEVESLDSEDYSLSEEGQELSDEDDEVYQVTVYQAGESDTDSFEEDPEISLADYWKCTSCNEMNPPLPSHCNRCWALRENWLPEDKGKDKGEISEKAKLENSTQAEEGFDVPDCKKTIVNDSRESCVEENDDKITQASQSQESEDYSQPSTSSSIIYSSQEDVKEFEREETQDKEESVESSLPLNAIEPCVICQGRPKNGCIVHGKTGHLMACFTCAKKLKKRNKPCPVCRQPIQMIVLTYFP
Sequence of MDM2-FL_C_GFP (human) (Q00987 whole entry): as above
Description for p53/MDM2 interaction: The MT bench was done using Human Osteosarcoma (U-2 OS) cell line which is the reference for cellular imagery. U-2 OS cells were cultured at 37°C in a humidified atmosphere with 5% CO2 in Dulbecco's modified Eagle's medium (DMEM, Life Technologies) supplemented with 10% FBS (Fetal Bovine Serum, Life Technologies) and 1% penicillin/streptomycin.
The generation of the cellular plate (seeding, transfection, treatment) was done automatically using the liquid handler BRAVO from Agilent equipped with a 96-LT (Large Tips) head. U-2 OS cells were seeded on black 96-well plates cell carrier ultra (PerkinElmer) at a density of 18.000 cells per well and after 24h incubation in a humidified incubator at 37°C with 5% CO2 were co-transfected with 12µg human p53-FL(SEQ ID N°15)_C_RFP- MBD and 03µg human MDM2-FL(SEQ ID N°21)_C_GFP plasmids for the positive control (untreated condition) or 12µg human p53-F19AW23AL26A(SEQ ID N°20)_C_RFP-MBD and 0.3µg human MDM2-FL(SEQ ID N°21)_C_GFP plasmids corresponding to the negative control (non-interacting condition / treated condition) using 0.5µg Lipofectamine 2000 (Invitrogen) in optiMEM for 18h.
After 18h of transfection, cells were fixed with ice-cold methanol 100% for 10min at -20°C, washed with PBS and then further fixed with 4% Para FormAldehyde (PFA) in PBS freshly prepared for 10min at RT. […] After washing with PBS, cell nuclei were stained with DAPI (0.1µg/mL) for 5min at RT and samples kept into PBS for fluorescence microscopy imaging. The cellular fluorescent signal was acquired on HCS imaging system Opera Phenix from PerkinElmer, using a 40X water immersion 1.1NA objective and with Harmony® software.
After image acquisition, successive building blocks from Harmony® software was used for image segmentation (find nuclei, find cytoplasm, and select population through threshold on GFP and RFP maximum and mean intensities, as well as cell area). Both images were then filtered using SER Ridge filters to highlight microtubule structures in the cytoplasm.
The PCC is a well-established correlation score to measure co-localization and calculated as follows [formula] where Ri and Gi are the pixel intensity values and Rav and Gav are the means of red and green channel, respectively. The values are range between +1 (perfect correlation) to -1 (perfect inverse correlation), with 0 being the absence of co-localization. Thus, the PCC values reflect the co-localization between bait and prey proteins into cytoplasm, translating the interaction on the microtubule network.
This normalization was done by extrapolating the PCC values relatively to the controls, by using the mean of negative control wells and the mean of positive control wells.

Consider `O=C1C(=O)c2ccccc2-c2ccccc21` [9,10-Phenanthrenequinone], for which the “effect in the four tests” value in the test with TDP-43 is “showed an effect on at least two of the four tests”.
Take `CCOc1cc(C(C)(C)C)ccc1C1=N[C@@](C)(c2ccc(Cl)cc2)[C@@](C)(c2ccc(Cl)cc2)N1C(=O)N1CCN(CCCS(C)(=O)=O)CC1` [RG7112]: the IC50 in test [1] was 400 nM. For the same compound, the “inhibition of the p53/MDM2 interaction” value is “weak inhibition of the interaction” at p53/MDM2 interaction (0.05µM (low concentration)), “moderate inhibition of the interaction” against p53/MDM2 interaction (0.5µM (medium concentration)), “strong inhibition of the interaction” against p53/MDM2 interaction (5µM (high concentration)) and “strong inhibition of the interaction” against p53/MDM2 interaction (50µM (high concentration)). For the same compound, at p53/MDM2 interaction (increasing concentrations 0.05µM, 0.5µM, 5µM, 50µM, fixed U-2 OS cells), the “disruption of p53/MDM2 interaction and re-localization of MDM2 in the nucleus” value is reported as “dose-dependent manner”.
Compound p53-F19A_C_RFP-MBD yielded a percent of the interaction abrogated (against wild-type p53) with MDM2-FL_C_GFP (human) greater than 90%.
Regarding `Nc1ncnc2c1c(I)cn2[C@@H]1O[C@H](CO)[C@@H](O)[C@H]1O` [5-iodotubercidin], the “effect in the four tests” value with TDP-43 was “showed an effect on at least two of the four tests”.
Consider `O=C1Nc2ccc3ncsc3c2C1=Cc1cnc[nH]1` [PKRi], for which the “effect in the four tests” value in the test on TDP-43 is given as “showed an effect on at least two of the four tests”.

Broadly, the IC50 is the concentration at which inhibition is half-maximal.
